Laboratory results reported in the NIST ThermoML archive (doi:10.1021/je0497496).
Several values for one entry are separate records, joined by “and”; a condition that tells them apart may be missing. Identical values can stand only once.

Settings: for vapor or sublimation pressure: Closed cell (Static) method; for mass density: buoyancy

FCC(F)(F)F [1,1,1,2-tetrafluoroethane]
Liquid
Settings	mass density	vapor or sublimation pressure
253.13 K	1358.69 kg/m3 and 1358.7 kg/m3	133.58 kPa and 133.6 kPa
262.99 K	1327.33 kg/m3	200.47 kPa
263 K	1327.31 kg/m3	200.48 kPa
273.31 K	1293.96 kg/m3	295.5 kPa
283.16 K	1260.66 kg/m3	415.71 kPa
283.17 K	1260.67 kg/m3	415.71 kPa
293.22 K	1225.34 kg/m3 and 1225.33 kg/m3	571.94 kPa and 571.98 kPa
303.25 K	1187.23 kg/m3	771.67 kPa
303.26 K	1187.22 kg/m3	771.76 kPa
313.18 K	1146.44 kg/m3	1018.1 kPa
323.19 K	1102.35 kg/m3	1319.8 kPa
323.2 K	1102.34 kg/m3	1319.9 kPa
333.16 K	1052.61 kg/m3	1683 kPa
333.17 K	1052.6 kg/m3	1683.2 kPa
343.03 K	997.103 kg/m3	2110.6 kPa
343.04 K	997.091 kg/m3	2110.9 kPa
353.16 K	928.313 kg/m3 and 928.306 kg/m3	2633.6 kPa and 2633.7 kPa
363.17 K	837.765 kg/m3	3245.3 kPa
363.18 K	837.734 kg/m3	3245.5 kPa

Fluid (supercritical or subcritical phases)
Settings	mass density
262.98 K, 30.04 kPa	1.41703 kg/m3
262.99 K, 30.02 kPa	1.41553 kg/m3 and 1.41816 kg/m3
262.99 K, 50.03 kPa	2.37378 kg/m3
262.99 K, 80.08 kPa	3.83561 kg/m3
262.99 K, 100.09 kPa	4.82696 kg/m3
262.99 K, 150.06 kPa	7.37304 kg/m3
273.31 K, 50 kPa	2.27757 kg/m3 and 2.2813 kg/m3
273.31 K, 100.01 kPa	4.6218 kg/m3
273.31 K, 150.01 kPa	7.03559 kg/m3
273.31 K, 200 kPa	9.53172 kg/m3
273.32 K, 250 kPa	12.1179 kg/m3
283.16 K, 100.09 kPa	4.4428 kg/m3
283.16 K, 200.02 kPa	9.12611 kg/m3
283.16 K, 300.08 kPa	14.1052 kg/m3
283.17 K, 100.1 kPa	4.44579 kg/m3
283.17 K, 350.92 kPa	16.7525 kg/m3
293.21 K, 399.98 kPa	18.4354 kg/m3
293.21 K, 500.02 kPa	23.7422 kg/m3
293.22 K, 100.05 kPa	4.27783 kg/m3 and 4.27519 kg/m3
293.22 K, 200.05 kPa	8.76202 kg/m3 and 8.75976 kg/m3
293.22 K, 300.02 kPa	13.4608 kg/m3
303.25 K, 100.02 kPa	4.1211 kg/m3 and 4.12406 kg/m3
303.26 K, 299.99 kPa	12.8979 kg/m3
303.26 K, 499.91 kPa	22.542 kg/m3
303.26 K, 711.4 kPa	34.0053 kg/m3
313.17 K, 100.02 kPa	3.98495 kg/m3 and 3.98345 kg/m3
313.17 K, 200.04 kPa	8.11408 kg/m3
313.17 K, 600.21 kPa	26.4214 kg/m3
313.17 K, 902.11 kPa	42.8957 kg/m3
313.18 K, 400.01 kPa	16.8674 kg/m3
313.18 K, 800.41 kPa	37.0004 kg/m3
323.19 K, 100.02 kPa	3.85767 kg/m3 and 3.85694 kg/m3
323.19 K, 500 kPa	20.6111 kg/m3
323.19 K, 940.01 kPa	42.4962 kg/m3
323.19 K, 1271.1 kPa	62.9174 kg/m3
323.2 K, 300 kPa	11.9392 kg/m3
323.2 K, 802.37 kPa	35.149 kg/m3
333.16 K, 101.53 kPa	3.7964 kg/m3
333.16 K, 303.79 kPa	11.6786 kg/m3
333.16 K, 1500 kPa	73.4336 kg/m3
333.17 K, 101.53 kPa	3.79264 kg/m3
333.17 K, 502.7 kPa	19.9182 kg/m3
333.17 K, 801.13 kPa	33.4094 kg/m3
333.17 K, 1009.4 kPa	43.8443 kg/m3
333.17 K, 1300.4 kPa	60.3214 kg/m3
343.03 K, 136.28 kPa	4.96602 kg/m3
343.03 K, 1500 kPa	68.2379 kg/m3
343.03 K, 1704.5 kPa	81.5238 kg/m3
343.04 K, 136.71 kPa	4.97127 kg/m3
343.04 K, 303.78 kPa	11.2865 kg/m3
343.04 K, 520.7 kPa	19.9261 kg/m3
343.04 K, 849.11 kPa	34.1538 kg/m3
343.04 K, 1093.8 kPa	45.8644 kg/m3
343.04 K, 1300.4 kPa	56.7069 kg/m3
343.04 K, 1900.2 kPa	96.118 kg/m3
353.16 K, 136.72 kPa	4.81465 kg/m3
353.16 K, 500.97 kPa	18.447 kg/m3
353.16 K, 2000.3 kPa	94.8889 kg/m3
353.16 K, 2200.5 kPa	110.087 kg/m3
353.17 K, 1000.4 kPa	39.3925 kg/m3
353.17 K, 1508.8 kPa	64.532 kg/m3
353.17 K, 2408.1 kPa	128.821 kg/m3
363.17 K, 153.67 kPa	5.26494 kg/m3
363.17 K, 500.5 kPa	17.8052 kg/m3
363.17 K, 1001.1 kPa	37.7848 kg/m3
363.17 K, 3101.3 kPa	188.758 kg/m3
363.18 K, 1500.8 kPa	60.7126 kg/m3
363.18 K, 2003.2 kPa	88.1709 kg/m3
363.18 K, 2500.4 kPa	122.731 kg/m3
363.18 K, 2800.4 kPa	150.158 kg/m3
363.18 K, 3002.1 kPa	174.085 kg/m3
